Measurements taken from the CheMixHub ionic liquid set.
“And” between values parts separate entries of the source, which are not always exact repeats. Equal entries are not always repeated.

Assay: xn = mol fraction of the nth substance listed
Conditions: 298.15 K, 101 kPa, frequency 0.001 MHz

CCCCCCCCCCCCCCCC[N+](C)(C)C.[Br-] + CCCCCCCCCCCCOS(=O)(=O)[O-].[Na+] + O
Conditions	electrical conductivity
x2 = 0, x1 = 3e-08	0.000332 S/m
x2 = 0, x1 = 1.09e-06	0.001 S/m
x2 = 0, x1 = 2.34e-06	0.00165 S/m
x2 = 0, x1 = 3.39e-06	0.00255 S/m
x2 = 0, x1 = 4.43e-06	0.00305 S/m
x2 = 0, x1 = 5.57e-06	0.00366 S/m
x2 = 0, x1 = 6.72e-06	0.00441 S/m
x2 = 0, x1 = 7.97e-06	0.00511 S/m
x2 = 0, x1 = 8.91e-06	0.00577 S/m
x2 = 0, x1 = 1.12e-05	0.00697 S/m
x2 = 0, x1 = 1.213e-05	0.00757 S/m
x2 = 0, x1 = 1.307e-05	0.00823 S/m
x2 = 0, x1 = 1.411e-05	0.00873 S/m
x2 = 0, x1 = 1.526e-05	0.00943 S/m
x2 = 0, x1 = 1.63e-05	0.00978 S/m
x2 = 0, x1 = 1.734e-05	0.0102 S/m
x2 = 0, x1 = 1.922e-05	0.0105 S/m
x2 = 0, x1 = 1.995e-05	0.0108 S/m
x2 = 0, x1 = 2.172e-05	0.0111 S/m
x2 = 0, x1 = 2.276e-05	0.0113 S/m
x2 = 0, x1 = 2.443e-05	0.0115 S/m
x2 = 0, x1 = 2.599e-05	0.0117 S/m
x2 = 0, x1 = 2.734e-05	0.012 S/m
x2 = 0, x1 = 2.859e-05	0.0122 S/m
x2 = 1e-08, x1 = 1e-08	0.000339 S/m and 0.000404 S/m
x2 = 1e-08, x1 = 3e-08	0.000436 S/m
x2 = 1e-08, x1 = 4e-08	0.000343 S/m
x2 = 1e-08, x1 = 1.2e-07	0.000394 S/m
x2 = 2e-08, x1 = 2e-08	0.000534 S/m
x2 = 2e-08, x1 = 3e-08	0.000686 S/m and 0.000765 S/m
x2 = 2e-08, x1 = 4e-08	0.000522 S/m and 0.000583 S/m and 0.000801 S/m
x2 = 2e-08, x1 = 5e-08	0.000647 S/m and 0.000697 S/m
x2 = 2e-08, x1 = 7e-08	0.000383 S/m
x2 = 2e-08, x1 = 8e-08	0.000422 S/m
x2 = 2e-08, x1 = 1.5e-07	0.000412 S/m
x2 = 2e-08, x1 = 1.9e-07	0.000438 S/m
x2 = 3e-08, x1 = 1e-08	0.000594 S/m
x2 = 3e-08, x1 = 4e-08	0.000836 S/m
x2 = 3e-08, x1 = 5e-08	0.000883 S/m
x2 = 3e-08, x1 = 6e-08	0.000733 S/m
x2 = 3e-08, x1 = 7e-08	0.000772 S/m
x2 = 3e-08, x1 = 1.1e-07	0.000459 S/m
x2 = 3e-08, x1 = 2.3e-07	0.000467 S/m
x2 = 3e-08, x1 = 3e-07	0.000493 S/m
x2 = 4e-08, x1 = 2e-08	0.000416 S/m and 0.00028 S/m
x2 = 4e-08, x1 = 6e-08	0.000919 S/m
x2 = 4e-08, x1 = 8e-08	0.000812 S/m
x2 = 4e-08, x1 = 1e-07	0.000848 S/m
x2 = 4e-08, x1 = 1.7e-07	0.000541 S/m
x2 = 4e-08, x1 = 3.6e-07	0.000522 S/m
x2 = 5e-08, x1 = 1e-08	0.000679 S/m
x2 = 5e-08, x1 = 7e-08	0.000941 S/m
x2 = 5e-08, x1 = 1.2e-07	0.000887 S/m
x2 = 5e-08, x1 = 4.3e-07	0.000555 S/m
x2 = 6e-08, x1 = 2e-08	0.000797 S/m
x2 = 6e-08, x1 = 6e-08	0.000747 S/m
x2 = 6e-08, x1 = 9e-08	0.000991 S/m
x2 = 6e-08, x1 = 2.4e-07	0.000642 S/m
x2 = 7e-08, x1 = 1.1e-07	0.00101 S/m
x2 = 7e-08, x1 = 1.5e-07	0.000924 S/m
x2 = 7e-08, x1 = 2.9e-07	0.000707 S/m
x2 = 8e-08, x1 = 1e-08	0.000628 S/m
x2 = 8e-08, x1 = 2e-08	0.000891 S/m
x2 = 8e-08, x1 = 3e-08	0.00034 S/m
x2 = 8e-08, x1 = 5e-08	0.00106 S/m
x2 = 8e-08, x1 = 1.9e-07	0.00096 S/m
x2 = 8e-08, x1 = 3.2e-07	0.000765 S/m
x2 = 9e-08, x1 = 6e-08	0.00125 S/m
x2 = 9e-08, x1 = 1.3e-07	0.00105 S/m
x2 = 9e-08, x1 = 3.7e-07	0.000826 S/m
x2 = 1e-07, x1 = 6e-08	0.00139 S/m
x2 = 1e-07, x1 = 1.5e-07	0.00109 S/m
x2 = 1.1e-07, x1 = 7e-08	0.00148 S/m
x2 = 1.1e-07, x1 = 1.1e-07	0.001 S/m
x2 = 1.2e-07, x1 = 3e-08	0.00103 S/m
x2 = 1.2e-07, x1 = 5e-08	0.000383 S/m
x2 = 1.2e-07, x1 = 8e-08	0.00152 S/m
x2 = 1.2e-07, x1 = 1.7e-07	0.00113 S/m
x2 = 1.4e-07, x1 = 1.4e-07	0.00108 S/m
x2 = 1.4e-07, x1 = 2.1e-07	0.00116 S/m
x2 = 1.5e-07, x1 = 4e-08	0.00112 S/m
x2 = 1.5e-07, x1 = 6e-08	0.000443 S/m
x2 = 1.5e-07, x1 = 1e-07	0.00161 S/m
x2 = 1.6e-07, x1 = 2e-08	0.000934 S/m
x2 = 1.6e-07, x1 = 7e-08	0.000477 S/m
x2 = 1.7e-07, x1 = 1.1e-07	0.00167 S/m
x2 = 1.8e-07, x1 = 1.8e-07	0.00116 S/m
x2 = 1.8e-07, x1 = 2.7e-07	0.0012 S/m
x2 = 1.9e-07, x1 = 2e-08	0.00106 S/m
x2 = 2e-07, x1 = 9e-08	0.000571 S/m
x2 = 2e-07, x1 = 1.3e-07	0.00173 S/m
x2 = 2.2e-07, x1 = 5e-08	0.00121 S/m
x2 = 2.2e-07, x1 = 2.2e-07	0.00125 S/m
x2 = 2.3e-07, x1 = 3e-08	0.00115 S/m
x2 = 2.6e-07, x1 = 1.7e-07	0.00178 S/m
x2 = 2.6e-07, x1 = 2.6e-07	0.00135 S/m
x2 = 2.8e-07, x1 = 3e-08	0.00131 S/m
x2 = 3e-07, x1 = 7e-08	0.00125 S/m
x2 = 3e-07, x1 = 1.3e-07	0.000632 S/m
x2 = 3e-07, x1 = 2e-07	0.00186 S/m
x2 = 3e-07, x1 = 3e-07	0.00143 S/m
x2 = 3.1e-07, x1 = 3e-08	0.00138 S/m
x2 = 3.4e-07, x1 = 4e-08	0.00144 S/m
x2 = 3.4e-07, x1 = 3.4e-07	0.00147 S/m
x2 = 3.6e-07, x1 = 4e-08	0.00156 S/m
x2 = 3.7e-07, x1 = 2.4e-07	0.00196 S/m
x2 = 4e-07, x1 = 4e-08	0.00168 S/m
x2 = 4.1e-07, x1 = 1e-07	0.0013 S/m
x2 = 4.1e-07, x1 = 1.8e-07	0.000659 S/m
x2 = 4.1e-07, x1 = 2.7e-07	0.00203 S/m
x2 = 4.6e-07, x1 = 3.1e-07	0.00208 S/m
x2 = 4.7e-07, x1 = 5e-08	0.00179 S/m
x2 = 5.1e-07, x1 = 2.2e-07	0.000678 S/m
x2 = 5.1e-07, x1 = 3.4e-07	0.0022 S/m
x2 = 5.4e-07, x1 = 6e-08	0.0019 S/m
x2 = 5.6e-07, x1 = 3.7e-07	0.00228 S/m
x2 = 5.8e-07, x1 = 1.5e-07	0.00133 S/m
x2 = 6.1e-07, x1 = 7e-08	0.00201 S/m
x2 = 6.6e-07, x1 = 2.8e-07	0.000706 S/m
x2 = 6.7e-07, x1 = 7e-08	0.00214 S/m
x2 = 7.9e-07, x1 = 3.4e-07	0.000733 S/m
x2 = 8.2e-07, x1 = 2e-07	0.00138 S/m
x2 = 9e-07, x1 = 3.9e-07	0.000778 S/m
x2 = 1.05e-06, x1 = 2.6e-07	0.00143 S/m
